Results on five compounds are retold here after publication PMC5342726, “Identification of small molecule inhibitors of ERCC1-XPF that inhibit DNA repair and potentiate cisplatin efficacy in cancer cells” (Oncotarget, 2016).

One assay relates to H460 xenografts. To be noted: 16168 20 mg/kg i.p. daily or cisplatin 3 mg/kg i.p. twice a week, 10 days.
The subject of assay [1] is H460 cells. In words: Cisplatin intrastrand adduct repair by ELISA. It counts as cell-based. To be noted: 72 hours (last time point), compound 15 μM 2 h then cisplatin at IC90 2 h; relative to 0 hour. (In general: In an ELISA, binding on a coated surface is turned into a signal by an enzyme label.)
Assay [2] has as its system H460 cells. Nature of the assay: Cisplatin interstrand crosslink repair by comet assay. The class given is cell-based. To be noted: 72 hours, cisplatin at IC90 alone.
Protocol: (B) After treatment, comet assay was performed as described at different time intervals (0, 24, 48 and 72 h). The percentage of interstrand crosslinks remaining was calculated using olive tail moment. Results are represented as mean ± SEM of three independent experiments.
The data is expressed as the percentage of crosslinks remaining at the time points assessed.
Cells were treated with compound (Hit control (9:1 DMSO-glycerol). After incubation at 37°C 1 or Hit 2) and cisplatin or just cisplatin alone in serum for 30 minutes, 2 μL of the pre-incubate was diluted into a free media. […] Cells were further treated with 100 μM
Cells were then trypsinized, pelleted and resuspended in 1% low melting point agarose.
For another assay, the target named is T1, ERCC1-XPF (Homo sapiens, UniProt P07992+Q92889).
T1 construct: made in house; host or cells: Sf9 insect cells, baculovirus (obtained from Aziz Sancar)
T1 sequence (Q92889 1-916): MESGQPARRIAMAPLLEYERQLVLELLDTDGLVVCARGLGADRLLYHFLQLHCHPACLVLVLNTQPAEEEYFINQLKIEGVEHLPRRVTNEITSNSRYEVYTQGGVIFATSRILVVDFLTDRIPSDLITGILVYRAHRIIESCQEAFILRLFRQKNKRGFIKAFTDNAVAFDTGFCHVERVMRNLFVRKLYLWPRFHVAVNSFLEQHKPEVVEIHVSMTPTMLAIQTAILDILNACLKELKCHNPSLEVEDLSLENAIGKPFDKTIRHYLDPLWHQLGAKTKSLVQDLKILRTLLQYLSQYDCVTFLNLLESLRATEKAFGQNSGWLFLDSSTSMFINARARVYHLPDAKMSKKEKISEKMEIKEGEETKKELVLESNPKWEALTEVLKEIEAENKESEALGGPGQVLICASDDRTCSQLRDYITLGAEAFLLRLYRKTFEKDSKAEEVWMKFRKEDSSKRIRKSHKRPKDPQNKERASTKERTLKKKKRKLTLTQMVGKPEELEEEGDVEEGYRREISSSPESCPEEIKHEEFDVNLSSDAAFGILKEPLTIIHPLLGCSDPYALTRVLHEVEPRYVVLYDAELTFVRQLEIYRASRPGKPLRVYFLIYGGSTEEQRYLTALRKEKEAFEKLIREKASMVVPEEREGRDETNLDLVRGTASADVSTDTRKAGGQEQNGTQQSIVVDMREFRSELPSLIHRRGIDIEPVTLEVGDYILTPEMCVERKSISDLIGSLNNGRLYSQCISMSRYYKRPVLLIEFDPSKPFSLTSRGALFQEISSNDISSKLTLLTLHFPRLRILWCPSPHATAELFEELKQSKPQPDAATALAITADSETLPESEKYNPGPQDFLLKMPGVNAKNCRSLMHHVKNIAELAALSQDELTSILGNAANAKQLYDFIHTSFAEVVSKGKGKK
T1 sequence (P07992 1-297): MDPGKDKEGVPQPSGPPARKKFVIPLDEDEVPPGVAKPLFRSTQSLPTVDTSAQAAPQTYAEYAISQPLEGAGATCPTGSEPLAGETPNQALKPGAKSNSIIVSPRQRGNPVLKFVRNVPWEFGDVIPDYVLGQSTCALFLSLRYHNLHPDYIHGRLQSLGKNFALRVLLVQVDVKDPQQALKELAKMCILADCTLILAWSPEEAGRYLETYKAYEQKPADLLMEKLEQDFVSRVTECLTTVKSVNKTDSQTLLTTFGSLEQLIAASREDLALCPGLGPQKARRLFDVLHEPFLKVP
Nature of the assay: HTS fluorescence assay of ERCC1-XPF endonuclease activity. To be noted: IC50s calculated by CompuSyn, SD from 3 plots, read-out: ERCC1-XPF IC50. It counts as biochemical. The text has this: To screen for ERCC1-XPF inhibition, an existing in vitro assay was optimized to a 96-well plate format to allow for screening of compound libraries (NCI-DTP diversity set). These compounds and subsequent vialed compounds were from the Drug Synthesis and Chemistry Branch, Developmental Therapeutics Program, Division of Cancer Treatment and Diagnosis at the National Cancer Institute. We used purified ERCC1-XPF (Supplementary Figure S1) and describe the purification procedure in Supplementary Information. The initial cuvette-based assay was optimized for DNA, MgCl2 concentrations as well as the incubation time to be used in the fluorescence assay in a 96 well plate format (Supplementary Figure S2). The assay consists of a 10 nM DNA (Q+Fl substrate annealed, described below) and 7.5 nM ERCC1-XPF protein in buffer containing 50 mM Tris-HCl pH8.0, 2 mM MgCl2, 0.1 mM BSA, and 0.5 mM β-mercaptoethanol. For preliminary screening, 150 μL of DNA was added to each well and the fluorescence signal was measured at 525 nm following excitation at 485 nm. Compounds or controls were then added to individual wells for a total of 80 compounds on each plate and the fluorescent signal was re-measured. We initially ran the screen using 50 μM compound and then repeated using 10 μM compound. 16 controls were used per plate, which consisted of buffer alone, DNA alone, ERCC1-XPF alone, 10 nM fluorescein ssDNA (positive signal), and 10 nM Q-Fl DNA with 7.5 nM ERCC1-XPF (positive signal). 7.5 nM ERCC1-XPF was added to each well containing the compounds and DNA and incubated for 30 minutes at 37°C after which the fluorescent signal was measured again.
The synthetic DNA substrate mimics a native forked ssDNA-dsDNA substrate of ERCC1-XPF (Figure 1A). This forked DNA substrate has a dsDNA region (14 bases) and a region containing two ssDNA flaps (12 bases each). One 26-mer DNA oligonucleotide contains a site-specific fluorescein modification at the indicated position (Fl Oligo: 5' - GCCAGCGCTCGGAT(AminoC6dT)(FLSN) TTTTTTTTTTT). The semi-complementary strand was synthesized containing a DABCYL quencher (Q) molecule at the depicted position (Q Oligo: 5' - TTTTTTTTTTT (AminoC6dT)(Dabcyl) ATCCGAGCGCTGGC; Figure 1A). The fluorescein (*) molecule has an excitation peak centered at 485 nm and an emission peak centered at 525 nm. The quencher (Q) molecule is able to quench the fluorescence signal of the fluorescein when it is in close proximity. The design of the semi-duplex DNA substrate is such that the fluorescein and DABCYL quencher are directly opposite one another at the double-stranded and single-stranded DNA junction (Figure 1A). […] Upon cleavage by ERCC1-XPF, (~4-5 bases from the dsDNA-ssDNA) the fluorescein label on the cleaved DNA is released into solution and results in a significant increase in fluorescence as the quencher is no longer in close proximity. The DNA substrate is also incorporated with a restriction enzyme site (HhaI) within the duplex DNA that results in a cleavage pattern similar to ERCC1-XPF. This serves as a positive control and allows assessment of ERCC1-XPF cleavage product. This DNA substrate is used in the solution based fluorescence screening assay to screen for inhibitors of ERCC1-XPF endonuclease activity. In the 96 well platform, the Z factor was calculated to be ~0.87 indicating a highly robust assay and highly suitable for a HTS. A Molecular Devices Spectramax M5 plate reader was used for fluorescence detection. The DNA substrate was the same for gel-based assays besides the fluorescent/quencher modifications and 5'-labeling using γ-ATP^32. For the secondary screen, the reaction was setup in a tube with 10 nM DNA, 7.5 nM XPF-ERCC1, 20 U/ml of HhaI, or 7.5 nM XPG (Supplementary Figure S3A) in nuclease reaction buffer with compound titration and incubated at 37°C for 30 minutes. The reaction was stopped by chelating the metal in the buffer and read in the Spectramax M5 plate reader.

Assay [3] relates to H460 cells. In words: Colony survival assay in H460 cells. It counts as cell-based. Particulars: SAR, Supplementary Figure S6; cell line not stated. The procedure: We used H460, NSCLC cells, to first assess the impact on colony survival by knocking down ERCC1-XPF in these cells. […] Next, to assess if colony survival is affected we titrated cisplatin in these cells using a fixed concentration of Hit 1(50 μM) or Hit 2 (25 and 50 μM). […] Next, we assessed cisplatin potentiation by treating cells at a fixed cisplatin concentration (cisplatin IC50 in H460 cells) with Hit 1 or 2 titration (Figure 4C, filled symbols). H460 cells were treated with compound for a total of 4 hours while cisplatin was added to the media after 2 hours of compound pre-treatment. […] We also titrated Hit 1 or Hit 2 alone in these cells and treated for 4 h. […] We also assessed the effects of Hit 2 in another NSCLC cell line (H1299), which was either ERCC1 wildtype (WT) or knockout (KO) (Figure 4E).
Colony survival assay in a total reaction volume of 2.4 mL in a six-well plate Cells were split and seeded at a density of 300-400 format. Cells were transfected for 48 hours after which cells in a 60 mm plate and incubated overnight. The next complete media was added for 24 hours. Cells were day, the cells were treated with a fixed concentration of the seeded for clones and clones were selected using standard compound (Hit 1 or Hit 2) with cisplatin titration. After methods. ERCC1 KO clones were tested for ERCC1 treatment, fresh complete medium with antibiotics was and XPF expression by Western Blot using the ERCC1 added and the cells were then allowed to form colonies. In antibodies, 8F1, FL-297, and D-10 and the XPF antibody another method, the cells were seeded onto 60mm plates 3F2/3 (Santa Cruz).
Validation of genome editing was performed alone or titrated with a fixed concentration of cisplatin by PCR amplification with Taq polymerase (NEB) of (IC50 for the cell line used). Post treatment, the cells were exon 2 within the genomic DNA using the forward allowed to form colonies. Colonies were fixed with 95% primer: 5’ […]
methanol and stained with 0.2 % crystal violet. Colonies 3’ and the reverse primer: 5’ […]
with ≥50 cells were counted using a light microscope. Cell […] 3’. PCR product was cloned […]
survival was expressed as the ratio of average number of into a linearized pCR4-TOPO vector and transformed colonies in drug treated cells versus control cells x 100. into OneShot TOP10 E. coli using the TOPO-TA Cloning The experiment was done in triplicate for each drug Kit for Sequencing (Thermofisher). Bacterial colonies concentration. We have previously published the methods were selected with ampicillin and plasmid was extracted for ERCC1 and XPF knockdowns, which were used as using standard procedures. Plasmid was sequenced by controls. Briefly, cells were seeded onto six-well plates GeneWiz using an M13R primer. Potential sites of off-target editing in coding sequences were identified during
(density 2.5 × 10^5 cells /well) in antibiotic free media. guide RNA design with the Optimized CRISPR Design Two transfections were done at 24 h interval in each cell Tool. Primers were designed to amplify the exons line to knockdown ERCC1-XPF together according to containing the potential off-target sites and PCR product the manufacturer ’s (Dharmacon’s smartpools) protocol. was sequenced by GeneWiz. A list of specific off-target Addition of lipid reagent (Dharmafect 2, Dharmacon) sites and primers used to assess these off-target effects are […]

Consider `N.N.[Cl][Pt][Cl]` [Cisplatin, cis-diammine-dichloroplatinum (II)], for which the “tumor growth, single agent” value in the assay on H460 xenografts was “initial tumor response that delayed tumor growth”. Besides, the intrastrand adducts remaining in the assay with H460 cells [1] was ~ 15%. The ICLs remaining in the assay with H460 cells [2] is reported as 1-5%.

`O=S(=O)(NCCO)c1cc[c]([Sb](=[O])([OH])[OH])cc1` [NSC13776]: the IC50 on ERCC1-XPF was 1150 ± 960 nM.

Regarding `NC(=O)C[S+]([O-])CC(N)C(=O)O` (stereo not shown) [NSC14161], the IC50 on ERCC1-XPF was 790 ± 350 nM.

For `C[C@@H](O)CN(CCN(C[C@@H](C)O)C[C@@H](C)O)C[C@@H](C)O.O=[N+]([O-])O.[Cu]` [NSC103019], the IC50 on ERCC1-XPF was 530 ± 128 nM.

Take `Oc1cc(O)c2c(c1)O[C@H](c1ccc(O)c(O)c1)[C@@H](O)[C@@H]2c1c(O)cc(O)c2c1O[C@H](c1ccc(O)c(O)c1)[C@@H](O)C2` [Procyanidin B3]: the “potentiation of cisplatin by structural analogues in cell culture / colony survival” value in the assay with H460 cells [3] is listed as “activity for only one of the structural analogues”.

As a reminder, the IC50 is the concentration that gives 50% inhibition.
